Results published in paper PMC3844181, “Studies of the Interaction between Isoimperatorin and Human Serum Albumin by Multispectroscopic Method: Identification of Possible Binding Site of the Compound Using Esterase Activity of the Protein” (The Scientific World Journal, 2013).

Columns and labels:
[1] = biological target: T1, Human serum albumin (HSA) (Homo sapiens, UniProt P02768); test: ANS fluorescence titration, Scatchard plot; assay type: binding
T1 construct: gene ALB; mature serum albumin, 585 residues, monomer
T1 sequence (P02768 25-609): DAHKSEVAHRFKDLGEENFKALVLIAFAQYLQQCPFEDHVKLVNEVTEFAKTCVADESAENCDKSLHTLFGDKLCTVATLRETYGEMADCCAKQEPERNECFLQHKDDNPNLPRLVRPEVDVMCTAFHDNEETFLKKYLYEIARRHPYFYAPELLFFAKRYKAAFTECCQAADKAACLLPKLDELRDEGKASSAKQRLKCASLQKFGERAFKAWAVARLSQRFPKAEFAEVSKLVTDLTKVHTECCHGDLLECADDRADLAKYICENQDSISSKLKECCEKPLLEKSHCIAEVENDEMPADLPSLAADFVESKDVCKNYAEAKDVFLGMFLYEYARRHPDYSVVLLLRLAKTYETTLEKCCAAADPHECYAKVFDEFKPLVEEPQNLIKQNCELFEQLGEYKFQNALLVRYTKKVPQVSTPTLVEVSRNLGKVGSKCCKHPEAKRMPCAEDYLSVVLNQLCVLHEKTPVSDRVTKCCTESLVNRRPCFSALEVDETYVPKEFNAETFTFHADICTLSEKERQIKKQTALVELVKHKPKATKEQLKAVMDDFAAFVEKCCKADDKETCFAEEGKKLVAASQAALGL
Description: ANS fluorescence titration, Scatchard plot on Human serum albumin (HSA)

[2] = biological target: T1, Human serum albumin (HSA); test: 4-nitrophenyl acetate esterase assay; assay type: biochemical; details: 15 μM HSA, 250 μM pNPA, 250 μM compound, site I
[3] = biological target: T1, Human serum albumin (HSA); test: intrinsic Trp fluorescence quenching, modified Stern-Volmer plot; assay type: binding; details: 298 K, 50 mM phosphate pH 7.5, 3 μM HSA, excitation 295 nm; n = 0.862; site I; double-log
Description: intrinsic Trp fluorescence quenching, modified Stern-Volmer plot on Human serum albumin (HSA)

`O=S(=O)(O)c1cccc2cccc(Nc3ccccc3)c12` [ANS] gave a Kd [1] of 900 ± 50 nM.

`CC(=O)Oc1ccccc1C(=O)O` [aspirin] was tested, and the “inhibition of esterase activity” value [2] was “isoimperatorin, aspirin, warfarin, indomethacin, and osthole binding sites on the HSA molecule are the same”.

In the case of `CC(C)=CCOc1c2ccoc2cc2oc(=O)ccc12` [isoimperatorin, 4-[(3-methyl-2-butenyl)oxy]-7H-furo [3,2-g] [1] benzopyran-7-one], the “inhibition of esterase activity” value ([2]; competitive) is reported as “warfarin and indomethacin (as site I marker) and isoimperatorin inhibited competitively the HSA-catalyzed hydrolysis” and the “10^-5 × K b (M^-1)” value [3] is reported as “(11.02 ± 0.10) × 10^5 M^-1”.

For `COc1ccc2ccc(=O)oc2c1CC=C(C)C` [osthole], the “inhibition of esterase activity” value [2] was “isoimperatorin, aspirin, warfarin, indomethacin, and osthole binding sites on the HSA molecule are the same”.
